Data reported in patent US11952457B2, “Bioabsorbable resin for additive manufacturing with non-cytotoxic photoinitiator” (Carbon, Inc., priority 2021, dated 2024).

Columns and labels:
[1] = solubility of dye in resin formulation; assay type: physicochemical; conditions: final resin formulation (oligomer, PC, DDFD)
Description: The C&D Green Dye #6 is added to the resin to increase the absorbance of the resin for higher resolution printing. […] To mix C&D Green Dye #6 into the resin, the dye is first solubilized in PC at 0.06 wt % at 80° C. The stock solution of 0.06 wt % dye in PC is added to the oligomer to achieve the desired 0.03% concentration in the final resin.
Crystals of the C&D Green Dye #6 may be observed in this resin. C&D Green Dye #6 tends to crystalize in the resin. To prevent crystal aggregation, this resin should be mixed fresh prior to printing.

[2] = versus BAPO; cited from earlier work

For `Cc1ccc(Nc2ccc(Nc3ccc(C)cc3)c3c2C(=O)c2ccccc2C3=O)cc1` [C&D Green Dye #6, 1,4-bis(p-tolylamino)anthraquinone], the “solubility in the final formulation” value [1] was “limited solubility”.
In the case of `CC1(C)COC(=O)C1=O` [DDFD, dihydro-4,4-dimethyl-2,3-furandione], the “cytotoxicity relative to traditional UV photoinitiators such as BAPO” value [2] is given as “orders of magnitude less cytotoxic”.
